Laboratory results published in US6387950B2, “Treatment of tumors with RARα selective retinoid compounds in combination with other anti-tumor agents” (Allergan Sales, Inc., priority 2000, dated 2002).

How the values were obtained:
T47-D cells = experiment: cell proliferation assay (BrdU incorporation), T47-D; type: cell-based, human
Method: (§1) The SKBR-3 and T47-D cell cultures in which the assay procedures were performed are also well known and are available from sources well known in the art. Specifically, as is known, T-47D is an estrogen receptor positive (ER^+) human breast cancer cell line, and SK-BR-3 is an estrogen receptor negative (ER^−) human breast cancer cell line. The assay procedure which itself is well known in the art, involves determining incorporation of 5-bromo-2′-deoxyuridine (BrdU) into the cells. As is known, incorporation of less BrdU represents less cell proliferation (inhibition of cell proliferation), and this assay is accepted in the art as a measure of anti-proliferative or anti-tumor activity of the assayed agent or agents.
(§2) The estrogen receptor-positive (ER^+) cell line T-47D and the ER^−-cell line SK-BR-3 were cultured in Dulbecco's modification of Eagle's medium (DMEM Gibco BRL, Gaithersburg, Md.) supplemented with 10% fetal bovine serum (HyClone, Logan, Utah), 2 mM L-glutamine and 1% antibiotics-antimycotics (Gibco BRL). Cell lines were obtained from the American Type Culture Collection (ATCC, Rockville, Md., HTB-133 and HTB-30 for T47-D and SKBR-3, respectively). Cells were cultured at 37° C. in a humidified atmosphere containing 5% CO2.
(§3) Proliferation of cancer cell lines was determined using a commercial cell proliferation kit (Roche Diagnostics), essentially following the instructions of the manufacturer. Cells were seeded into 96-well tissue culture plates (Corning Incorporated, Corning, N.Y.) at a concentration of 3000 cells/well. After 24 hours, cells were treated with Compound 2 (AGN195183) and/or interferons (IFNs) or solvent alone. The appropriate concentrations of Compound 2 (AGN195183) used in this study were between 10^−11M and 10^−6M; IFNs concentrations were between 25 and 1000 Unit/ml. Culture media were changed every 72 hours. After 7days, 10 μl of 5-bromo-2′-deoxyuridine (BrdU) was added to each well. Incubation with BrdU was stopped 24 hours later by adding 100 μl of anti-BrdU antibody to each well. The amount of BrdU incorporated into the DNA of proliferating cells was assessed by measuring absorbance at 450 nm. Each experiment was performed in triplicate.
(§4) The growth inhibition observed in the cell cultures as a result of treatment with a combination of Compound 2 (AGN195183) of the invention and the interferons (IFNs) was analyzed for synergistic and additive effects.
(§5) Synergism was defined as: %A×% B>%AB
(§6) Additivity was defined as: %A×%B=%AB
(§7) where A and B are the effects of each individual agent and AB is the effect of the combination, in accordance with the teaching of Aapro et al., Cancer Chemother. Pharmacol., 10: 161 -166, 1983, and Marth et al., J. Natl. Cancer Inst., 77:1197-1202, 1986), both of which are expressly incorporated herein by reference.
(§8) Referring now to the graphs of FIGS. 1 through 12, each of these represents the results obtained in the above described assays where SKBR-3 and T47-D cells, respectively, were treated with a combination of Compound 2 of the invention and human recombinant interferon (IFN) α, β, and γ, respectively. The graph of FIG. 13 illustrates the results of treatment of these two cell cultures only with Compound 2 of the invention, without the use of any other anti-tumor agent. In each of these graphs the incorporation of 5-bromo-2′-deoxyuridine (BrdU) is plotted on the Y (vertical) axis and varying concentration of Compound 2 of the invention or varying concentration of IFNα. IFNβ or of IFNγ, respectively is plotted on the X (horizontal) axis. The concentration of the interferons is expressed in international units, as is accepted in the art, whereas the molar concentration of Compound 2 is plotted on a logarithmic scale. […]

RARβ receptors = molecular target: T1, RARβ receptors (Homo sapiens, UniProt P10826); experiment: chimeric receptor transactivation assay, RARβ; type: cell-based; conditions: agonist activity
T1 sequence (P10826 183-417 limits assumed): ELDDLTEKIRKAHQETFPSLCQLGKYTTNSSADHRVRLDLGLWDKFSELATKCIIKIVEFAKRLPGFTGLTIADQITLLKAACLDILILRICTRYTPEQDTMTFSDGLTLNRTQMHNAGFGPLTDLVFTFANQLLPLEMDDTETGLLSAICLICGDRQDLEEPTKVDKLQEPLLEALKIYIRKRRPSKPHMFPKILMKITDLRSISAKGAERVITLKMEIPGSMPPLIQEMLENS
From the text: (§9) For example, a chimeric receptor transactivation assay which tests for agonist-like activity in the RARα, RARβ, RARγ, RXRα receptor subtypes, and which is based on work published by Feigner P. L. and Holm M. (1989) Focus, 112 is described in detail in U.S. Pat. No. 5,455,265. The specification of U.S. Pat. No. 5,455,265 is hereby expressly incorporated by reference.
(§10) The results obtained in this assay are expressed in EC50 numbers, as they are also in the chimeric receptor transactivation assay.

SKBR-3 cells = experiment: cell proliferation assay (BrdU incorporation), SKBR-3; type: cell-based, human
Method: as §1, §2, §3, §4, §5, §6, §7, §8

RARγ receptors = molecular target: T2, RARγ receptors (Homo sapiens, UniProt P13631); experiment: chimeric receptor transactivation assay, RARγ; type: cell-based; conditions: agonist activity
T2 sequence (P13631 185-419 limits assumed): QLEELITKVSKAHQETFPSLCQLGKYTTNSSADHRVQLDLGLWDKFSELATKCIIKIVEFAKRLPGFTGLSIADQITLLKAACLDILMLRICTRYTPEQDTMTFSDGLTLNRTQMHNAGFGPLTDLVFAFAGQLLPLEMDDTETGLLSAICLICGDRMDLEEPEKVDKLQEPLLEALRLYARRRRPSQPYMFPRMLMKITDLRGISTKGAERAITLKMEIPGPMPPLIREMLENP
From the text: as §9, §10

CC1(C)CCC(C)(C)c2c1cc(C(=O)Nc1cc(F)c(C(=O)O)c(F)c1)c(O)c2Cl [Compound 2, 2,6-Difluoro-4-[(3-hydroxy-4-chloro-5,5,8 8-tetramethyl-5,6,7,8-tetrahydronaphthalene-2-carbonyl) -amino]-benzoic acid]
anti-proliferative effect of the combination (BrdU incorporation) (T47-D cells; Compound 2 100 nM, IFNα varied, FIG. 7): additive
anti-proliferative effect of the combination (BrdU incorporation) (T47-D cells; Compound 2 100 nM, IFNβ varied, FIG. 8): significantly synergistic
anti-proliferative effect of the combination (BrdU incorporation) (T47-D cells; Compound 2 100 nM, IFNβ varied, FIG. 8, listed as AGN 195183): synergism
anti-proliferative effect of the combination (BrdU incorporation) (T47-D cells; Compound 2 100 nM, IFNγ varied, FIG. 9): significantly synergistic
anti-proliferative effect of the combination (BrdU incorporation) (T47-D cells; Compound 2 100 nM, IFNγ varied, FIG. 9, listed as AGN 195183): synergism
anti-proliferative effect of the combination (BrdU incorporation) (T47-D cells; IFNα 100 U/ml, Compound 2 varied, FIG. 10): not very effective and merely additive
anti-proliferative effect of the combination (BrdU incorporation) (T47-D cells; IFNβ 100 U/ml, Compound 2 varied, FIG. 11): synergistic inhibition
anti-proliferative effect of the combination (BrdU incorporation) (T47-D cells; IFNβ 100 U/ml, Compound 2 varied, FIG. 11, listed as AGN 195183): synergism
anti-proliferative effect of the combination (BrdU incorporation) (T47-D cells; IFNγ 100 U/ml, Compound 2 varied, FIG. 12): synergistic inhibition was observed, in the cotreatment with IFNγ only at higher concentrations of Compound 2
anti-proliferative effect of the combination (BrdU incorporation) (T47-D cells; IFNγ 100 U/ml, Compound 2 varied, FIG. 12, listed as AGN 195183): synergism
EC50 (RARβ receptors): > 10 µM
anti-proliferative effect of the combination (BrdU incorporation) (SKBR-3 cells; Compound 2 10 nM, IFNα varied, FIG. 1): synergistic effect
anti-proliferative effect of the combination (BrdU incorporation) (SKBR-3 cells; Compound 2 10 nM, IFNα varied, FIG. 1, listed as AGN 195183): synergism
anti-proliferative effect of the combination (BrdU incorporation) (SKBR-3 cells; Compound 2 10 nM, IFNβ varied, FIG. 2): significant synergistic effect
anti-proliferative effect of the combination (BrdU incorporation) (SKBR-3 cells; Compound 2 10 nM, IFNβ varied, FIG. 2, listed as AGN 195183): synergism
anti-proliferative effect of the combination (BrdU incorporation) (SKBR-3 cells; Compound 2 10 nM, IFNγ varied, FIG. 3): significant synergistic effect
anti-proliferative effect of the combination (BrdU incorporation) (SKBR-3 cells; Compound 2 10 nM, IFNγ varied, FIG. 3, listed as AGN 195183): synergism
anti-proliferative effect of the combination (BrdU incorporation) (SKBR-3 cells; IFNα 100 U/ml, Compound 2 varied, FIG. 4): significant synergistic effect
anti-proliferative effect of the combination (BrdU incorporation) (SKBR-3 cells; IFNα 100 U/ml, Compound 2 varied, FIG. 4, listed as AGN 195183): synergism
anti-proliferative effect of the combination (BrdU incorporation) (SKBR-3 cells; IFNβ 100 U/ml, Compound 2 varied, FIG. 5): significant synergistic effect
anti-proliferative effect of the combination (BrdU incorporation) (SKBR-3 cells; IFNβ 100 U/ml, Compound 2 varied, FIG. 5, listed as AGN 195183): synergism
anti-proliferative effect of the combination (BrdU incorporation) (SKBR-3 cells; IFNγ 100 U/ml, Compound 2 varied, FIG. 6): significant synergistic effect
anti-proliferative effect of the combination (BrdU incorporation) (SKBR-3 cells; IFNγ 100 U/ml, Compound 2 varied, FIG. 6, listed as AGN 195183): synergism
EC50 (RARγ receptors): > 10 µM
